Laboratory results taken from patent publication US20060089395A1, “Nf-kb activation inhibitors” (priority 2002, published 2006).
Like-named read-outs stand apart in the source and are kept apart here.

System: NF-κ B
Test: Inhibitory activity of NF-κ B activation, luciferase reporter assay in HepG2 under TNF-α stimulation
Type: cell-based, human
Outline: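 HepG2 cells transiently transfected with a luciferase reporter driven by five tandem NF-κB binding sites, then incubated 6–24 h. Stimulated with TNF-α (40 ng/ml) with or without test compound for 4 h. Intracellular luciferase read by chemiluminescence; inhibition expressed relative to activity without compound.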

[1] = 10 μg/mL, HepG2, TNF-α (40 ng/ml), 4 hours
[2] = 1 μg/mL, HepG2, TNF-α (40 ng/ml), 4 hours
[3] = Homo sapiens, 1 μg/mL, HepG2, TNF-α (40 ng/ml), 4 hours, read-out: Inhibitory Ratio of NF-κ B Activation(%) Drug Concentration 1 μg/mL
[4] = Homo sapiens, 10 μg/mL, HepG2, TNF-α (40 ng/ml), 4 hours, read-out: Inhibitory Ratio of NF-κ B Activation(%) Drug Concentration 10 μg/mL

Inhibitory Ratio of NF-κ B Activation(%) Drug Concentration 10 μg/mL [1] [%]	Inhibitory Ratio of NF-κ B Activation(%) Drug Concentration 1 μg/mL [2] [%]	SMILES	also measured
97.8	79.5	O=C(Nc1cc(C(F)(F)F)cc(C(F)(F)F)c1)c1cc(-c2cccs2)ccc1O [Compound No. 28]	
94.7	90.8	CC(=O)Oc1ccc(Cl)cc1C(=O)Nc1cc(C(C)(C)C)cc(C(C)(C)C)c1 [Compound No. 139]	
93.7	90.7	O=C(Nc1cc(F)cc(F)c1)c1cc(Cl)ccc1O [Compound No. 180]	
67.2		Cc1nc(NC(=O)c2cc(Br)ccc2O)sc1C [Compound No. 191]	
		CCc1nc(NC(=O)c2cc(Br)ccc2O)oc1CC [Compound No. 234, 5-Bromo-N-(4,5-diethyloxazol-2-yl)-2-hydroxybenzamide]	inhibition at 1 µg/mL [3]: 29.1%; inhibition at 10 µg/mL [4]: 63.1%
94.3	81.5	O=C(Nc1cc(C(F)(F)F)cc(C(F)(F)F)c1)c1cc(F)ccc1O [compound 3]	
		Cc1nc(NC(=O)c2cc(Br)ccc2O)sc1-c1cccc(C(F)(F)F)c1 [Compound No. 194, 5-Bromo-N-{4-methyl-5-[3-(trifluoromethyl)phenyl]thiazol-2-yl}-2-hydroxybenzamide]	inhibition at 10 µg/mL [4]: 71.7%
88.7	49.1	Cc1ccc(O)c(C(=O)Nc2cc(Cl)cc(Cl)c2)c1 [Compound No. 131]	
98.8	52.6	O=C(Nc1ccccc1)c1ccc(Cl)c(NC(=O)c2cc(Cl)ccc2O)c1 [Compound No. 157]	
		O=C(Nc1nc(-c2cc(F)ccc2F)cs1)c1cc(Cl)ccc1O [Compound No. 263, 5-Chloro-2-hydroxy-N-[4-(2,5-difluorophenyl)thiazol-2-yl]benzamide]	inhibition at 1 µg/mL [3]: > 99.9%
93.3	83.0	N#Cc1ccc(Cl)cc1NC(=O)c1cc(Cl)ccc1O [Compound No. 154]	
97.6	94.2	CCCCOc1ccc(OCCCC)c(NC(=O)c2cc(Cl)ccc2O)c1 [Compound No. 161]	
		COC(=O)c1cc(NC(=O)c2cc(Br)ccc2O)cc(C(=O)OC)c1 [Compound No. 144, 5-bromo-2-hydroxy-N-[3,5-bis(methoxycarbonyl)phenyl]benzamide]	inhibition at 10 µg/mL [4]: 56.4%
		CCOC(=O)c1sc(NC(=O)c2cc(Br)ccc2O)nc1-c1c(F)c(F)c(F)c(F)c1F [Compound No. 219, Ethyl 2-(5-bromo-2-hydroxybenzoyl)amino-4-(pentafluorophenyl)thiazole-5-carboxylate]	inhibition at 1 µg/mL [3]: 82.2%; inhibition at 10 µg/mL [4]: 96%
97.9	93.8	CC(C)CCOc1ccc(OCCC(C)C)c(NC(=O)c2cc(Cl)ccc2O)c1 [Compound No. 162]	
96.8	94.0	CC(=O)Oc1ccc(Cl)cc1C(=O)Nc1cc(C(F)(F)F)ccc1C(F)(F)F [Compound No. 82]	

Inhibitory Ratio of NF-κ B Activation(%) Drug Concentration 10 μg/mL [1] [%]	Inhibitory Ratio of NF-κ B Activation(%) Drug Concentration 1 μg/mL [2] [%]	SMILES	also measured
		O=C(Nc1ccc(F)cc1F)c1cc([N+](=O)[O-])ccc1O [drawing 559, reference compound]	inhibition at 0.1 µg/mL (Homo sapiens, HepG2, 4 h, 0.1 μg/ml, comparison table, reporter assay, read-out: Inhibitory Ratio of NF-κB Activation (%) 0.1 μg/ml): -82.9%; inhibition at 1 µg/mL (Homo sapiens, HepG2, 4 h, 1 μg/ml, comparison table, reporter assay, read-out: Inhibitory Ratio of NF-κB Activation (%) 1 μg/ml): -63.8%; inhibition at 10 µg/mL (Homo sapiens, HepG2, 4 h, 10 μg/ml, comparison table, reporter assay, read-out: Inhibitory Ratio of NF-κB Activation (%) 10 μg/ml): 86.5%
		O=C(Nc1nc(-c2c(F)c(F)c(F)c(F)c2F)cs1)c1cc(Cl)ccc1O [Compound No. 266, 5-Chloro-2-hydroxy-N-[4-(2,3,4,5,6-pentafluorophenyl)thiazol-2-yl]benzamide]	inhibition at 1 µg/mL [3]: > 99.9%
		C[Si](C)(C)C#Cc1ccc(O)c(C(=O)Nc2cc(C(F)(F)F)cc(C(F)(F)F)c2)c1 [Compound No. 20, N-[3,5-bis(trifluoromethyl)phenyl]-2-hydroxy-5-[(trimethylsilyl)ethynyl]benzamide]	inhibition at 1 µg/mL [3]: 91.1%; inhibition at 10 µg/mL [4]: 94.9%
95.3	35.1	CCOc1ccc(OCC)c(NC(=O)c2cc(Cl)ccc2O)c1 [Compound No. 152]	
90.3	31.8	CCOC(=O)c1sc(NC(=O)c2cc(-c3ccc(F)cc3F)ccc2O)nc1-c1ccccc1 [Compound No. 227]	
89.4	85.1	O=C(Nc1nc(C(F)(F)F)c(-c2ccccc2)s1)c1cc(Br)ccc1O [Compound No. 213]	
		O=C(Nc1nnc(C(F)(F)F)s1)c1ccccc1O [Compound No. 237, 2-Hydroxy-N-(5-trifluoromethyl-1,3,4-thiadiazol-2-yl)benzamide]	inhibition at 10 µg/mL [4]: 81.9%
		CC(=O)Oc1ccccc1C(=O)Nc1cc(C(F)(F)F)cc(C(F)(F)F)c1 [compound 1, 2-acetoxy-N-[3,5-bis(trifluoromethyl)phenyl]benzamide]	inhibition at 1 µg/mL [3]: 90.9%; inhibition at 10 µg/mL [4]: 97.1%
		CCOC(=O)c1sc(NC(=O)c2cc(Br)ccc2O)nc1-c1ccccc1 [Compound No. 216, 2-(5-bromo-2-hydroxybenzoyl)amino-4-phenylthiazole-5-carboxylic acid ethyl ester]	inhibition at 1 µg/mL [3]: 55.8%; inhibition at 10 µg/mL [4]: 82.8%
		COC(=O)c1ccc(O)c(C(=O)Nc2cc(C(F)(F)F)cc(C(F)(F)F)c2)c1 [Compound No. 35, N-[3,5-bis(trifluoromethyl)phenyl]-4-hydroxyisophthalamic acid methyl ester]	inhibition at 1 µg/mL [3]: 88.2%; inhibition at 10 µg/mL [4]: 96.4%
97.4	96.7	CC(=O)Oc1ccc(Cl)cc1C(=O)Nc1cc(C(F)(F)F)ccc1Cl [Compound No. 89]	
87.1	37.4	COc1ccc(C(C)(C)C)cc1NC(=O)c1cc(C)ccc1O [Compound No. 149]	
		CC(C)(C)c1nc(NC(=O)c2cc(Br)ccc2O)sc1N1CCCCC1 [Compound No. 204, 5-Bromo-N-{4-[(1,1-dimethyl)ethyl]-5-piperidinothiazol-2-yl)-2-hydroxybenzamide]	inhibition at 1 µg/mL [3]: 93.6%; inhibition at 10 µg/mL [4]: 97.8%
		CC(C)c1nc(NC(=O)c2cc(Br)ccc2O)sc1-c1ccccc1 [Compound No. 197, 5-Bromo-N-(4-isopropyl-5-phenylthiazol-2-yl)-2-hydroxybenzamide]	inhibition at 1 µg/mL [3]: 70.1%; inhibition at 10 µg/mL [4]: 96.1%
71.8		O=C(Nc1cc(Cl)cc(Cl)c1)c1ccc(Cl)cc1O [Compound No. 129]	

SMILES	Inhibitory Ratio of NF-κ B Activation(%) Drug Concentration 10 μg/mL [1] [%]	Inhibitory Ratio of NF-κ B Activation(%) Drug Concentration 1 μg/mL [2] [%]	also measured
O=C(Nc1cc(C(F)(F)F)cc(C(F)(F)F)c1)c1cc(S(=O)(=O)Nc2cc(C(F)(F)F)cc(C(F)(F)F)c2)ccc1Cl [Compound No. 247]	>99.9		
O=C(Nc1cc(C(F)(F)F)ccc1F)c1cc(Cl)ccc1O [Compound No. 87]	95.9	93.1	
O=C(Nc1cc(C(F)(F)F)cc(C(F)(F)F)c1)c1ccc(O)c(C(=O)Nc2cc(C(F)(F)F)cc(C(F)(F)F)c2)c1 [Compound No. 37]	94.5		
Cc1ccc(Oc2ccc(C(F)(F)F)cc2NC(=O)c2cc(Cl)ccc2O)cc1 [Compound No. 117]	92.6	92.8	
O=C(Nc1cc(C(F)(F)F)cc(C(F)(F)F)c1)c1cc(Cl)cc(Cl)c1O [Compound No. 56]	95.1	89.4	
O=C(Nc1cc(C(F)(F)F)cc(C(F)(F)F)c1)c1ccc(F)cc1O [Compound No. 250]	95.4	94.2	
O=C(Nc1nc(-c2ccccc2)c(C(=O)NCCc2ccccc2)s1)c1cc(Br)ccc1O [Compound No. 223]	60.4	33.3	
O=C(Nc1cc(C(F)(F)F)ccc1[N+](=O)[O-])c1cc(Cl)ccc1O [Compound No. 91]	96.7	86.3	
CC(C)c1cc(Br)cc(C(=O)Nc2cc(C(F)(F)F)cc(C(F)(F)F)c2)c1O [Compound No. 257]		>99.9	
O=C(Nc1cc(C(F)(F)F)cc(C(F)(F)F)c1)c1cc(Br)c(O)cc1O [Compound No. 54]	86.5		
O=C(Nc1cc(C(F)(F)F)cc(C(F)(F)F)c1)c1c(O)c(Cl)cc(Cl)c1Cl [Compound No. 61]	97.2	95.1	
Cc1ccc(C(=O)Nc2cc(C(F)(F)F)cc(C(F)(F)F)c2)c(O)c1 [Compound No. 53]	94.5	93.3	
